Values after ≈ are worked out from the molar mass of the structure shown. Active and inactive are the calls of the source. No cut-off for these calls is given here. Square brackets hold non-standard residues; d marks the D form. Peptide text beside a SMILES is read from it. Dip = N[C@H](C(=O)O)C(c1ccccc1)c1ccccc1; 2Nal = N[C@@H](Cc1ccc2ccccc2c1)C(=O)O
Legend:
[1] = test system: Escherichia coli; assay: Bactericidal activity against Escherichia coli ATCC BAA-2452 assessed as reduction of bacterial growth at 4 times MIC by counting formed colonies; type: functional, organism-based; details: time <= 4.0 hrs, TDE = time-dependent effect
[2] = test system: Bacillus cereus; assay: Antibacterial activity against Bacillus cereus ATCC 13061 incubated for 24 hrs by microtiter plate method; type: functional
[3] = test system: Staphylococcus aureus; assay: Antibacterial activity against methicillin resistant Staphylococcus aureus ATCC BAA-1556 after 24 hrs in presence of 4.5 mM of KCl by microtiter plate method; type: functional
[4] = test system: Enterococcus faecalis; assay: Antibacterial activity against Enterococcus faecalis ATCC 29212 incubated for 24 hrs by microtiter plate method; type: functional
[5] = test system: Escherichia coli; assay: Antibacterial activity against Escherichia coli ATCC 25922 after 24 hrs in presence of fetal bovine serum by microtiter plate method; type: functional
[6] = test system: Lipid bilayer; assay: Induction of membrane disruption in bacterial inner membrane mimic DOPC/DOPG (7:3) large unilamellar vesicles assessed as decrease in particle size of liposome at 1:1 compound to lipid ratio measured after 90 mins by dynamic light scattering analysis; type: cell membranes
[7] = test system: Escherichia coli; assay: Antibacterial activity against Escherichia coli ATCC 25922 assessed as reduction in microbial growth after 24 hrs in presence of 6 mM of NH4Cl at by microtiter plate method; type: functional
[8] = test system: Cell membrane; assay: Membrano-lytic effect in cytoplasmic membrane of Escherichia coli ATCC BAA-2452 assessed as disruption by measuring propidium iodide fluorescence incubated for 1 hr by FACscan flow cytometer analysis; details: DDE = dose-dependent effect
[9] = test system: Streptococcus pneumoniae; assay: Antibacterial activity against […] ATCC 49619 incubated for 24 hrs by microtiter plate method; type: functional
[10] = test system: Staphylococcus aureus; assay: Antibacterial activity against methicillin resistant Staphylococcus aureus ATCC BAA-1556 after 24 hrs in presence of fetal bovine serum by microtiter plate method; type: functional
[11] = test system: Staphylococcus aureus; assay: Bactericidal activity against methicillin resistant Staphylococcus aureus ATCC BAA-1556 assessed as reduction of bacterial growth at MIC by counting formed colonies; type: functional, organism-based; details: time <= 4.0 hrs, TDE = time-dependent effect
[12] = test system: Lipid bilayer; assay: Membrano-lytic effect in bacterial inner membrane mimic DOPC/DOPG (7:3) large unilamellar vesicles assessed as calcein leakage measured at 5 microg/ml, incubated for 30 mins by multimode microplate reader assay; type: cell membranes; details: dose 5.0 µg/ml
[13] = test system: Escherichia coli; assay: Bactericidal activity against Escherichia coli ATCC BAA-2452 assessed as reduction of bacterial growth at MIC by counting formed colonies; type: functional, organism-based; details: time <= 4.0 hrs, TDE = time-dependent effect
[14] = test system: Pseudomonas aeruginosa; assay: Antibacterial activity against Pseudomonas aeruginosa ATCC 10145 incubated for 24 hrs by microtiter plate method; type: functional
[15] = test system: Acinetobacter baumannii; assay: Antibacterial activity against ciprofloxacin resistance Acinetobacter baumannii ATCC BAA1605 incubated for 24 hrs by microtiter plate method; type: functional
[16] = test system: Staphylococcus aureus; assay: Bactericidal activity against methicillin resistant Staphylococcus aureus ATCC BAA-1556 assessed as reduction of bacterial growth at 4 times MIC by counting formed colonies; type: functional, organism-based; details: time <= 4.0 hrs, TDE = time-dependent effect
[17] = test system: Escherichia coli; assay: Antibacterial activity against Escherichia coli ATCC BAA-2452 assessed as loss of membrane fluid at 4 times of MIC incubated for 30 mins by FE-SEM analysis; type: functional, organism-based
[18] = test system: Cell membrane; assay: Membrano-lytic effect in cytoplasmic membrane of methicillin resistant Staphylococcus aureus ATCC BAA-1556 assessed as disruption by measuring propidium iodide fluorescence incubated for 1 hr by FACscan flow cytometer analysis; details: DDE = dose-dependent effect
[19] = test system: Enterococcus faecalis; assay: Antibacterial activity against vancomycin-resistant Enterococcus faecalis ATCC 51575 incubated for 24 hrs by microtiter plate method; type: functional
[20] = test system: Escherichia coli; assay: Antibacterial activity against Escherichia coli ATCC 25922 after 24 hrs in presence of 2 mM CaCl2 at by microtiter plate method; type: functional
[21] = test system: Enterococcus faecium; assay: Antibacterial activity against Enterococcus faecium ATCC 27270 incubated for 24 hrs by microtiter plate method; type: functional
[22] = test system: Staphylococcus aureus; assay: Antibacterial activity against methicillin resistant Staphylococcus aureus ATCC BAA-1556 after 24 hrs in presence of 6 mM of NH4Cl by microtiter plate method; type: functional
[23] = Cytotoxicity against human MRC-5 assessed as cell viability at 150 ug/ml incubated for 24 hrs by microplate spectrophotometer analysis method relative to control; type: toxicity, cell-based, MRC5; details: MRC-5 cells, at 150 µg/mL, read-out: Activity
[24] = test system: Lipid bilayer; assay: Membrano-lytic effect in bacterial inner membrane mimic DOPC/DOPG (7:3) large unilamellar vesicles assessed as calcein leakage measured upto 100 mins for every 10 mins by multimode microplate reader assay; type: cell membranes; details: dose 5-50 µg/ml, DDE = dose-dependent effect
[25] = Selectivity ratio of MIC for antibacterial activity against Pseudomonas aeruginosa ATCC 10145 to MIC for antibacterial activity against imipenem-resistant Pseudomonas aeruginosa ATCC BAA-1744; type: functional
[26] = test system: Bacillus subtilis; assay: Antibacterial activity against Bacillus subtilis ATCC 6633 incubated for 24 hrs by microtiter plate method; type: functional
[27] = test system: Escherichia coli; assay: Antibacterial activity against Escherichia coli ATCC 25922 after 24 hrs in presence of 4.5 mM of KCl at by microtiter plate method; type: functional
[28] = test system: Staphylococcus aureus; assay: Antibacterial activity against methicillin-resistant Staphylococcus aureus ATCC BAA-1556 assessed as loss of membrane fluid at 4 times of MIC incubated for 30 mins by FE-SEM analysis; type: functional, organism-based
[29] = Selectivity ratio of MIC for antibacterial activity against Klebsiella pneumoniae ATCC 13883 to MIC for antibacterial activity against carbapenem-resistant Klebsiella pneumoniae ATCC BAA-2470; type: functional
[30] = test system: HepaRG; assay: Cytotoxicity against human HPRGC10 assessed as cell viability at 50 ug/ml incubated for 24 hrs by microplate spectrophotometer analysis method relative to control; type: functional; details: read-out: Activity
[31] = Proteolytic stability in human plasma at 100 uM incubated for 24 hrs by Q-TOF LC/MS analysis relative to control; type: ADME, cell-free; details: read-out: Stability
[32] = test system: Staphylococcus aureus; assay: Antibacterial activity against methicillin-resistant Staphylococcus aureus ATCC BAA-1556 assessed as membrane atrophy at 4 times of MIC incubated for 30 mins by FE-SEM analysis; type: functional, organism-based
[33] = test system: Staphylococcus aureus; assay: Antibacterial activity against methicillin resistant Staphylococcus aureus ATCC BAA-1556 after 24 hrs in presence of 150 mM of NaCl by microtiter plate method; type: functional
[34] = test system: Lipid bilayer; assay: Membrano-lytic effect in mammalian membrane mimic DOPC/cholesterol (10:1) large unilamellar vesicles assessed as calcein leakage measured at 50 microg/ml measured upto 100 mins for every 10 mins by multimode microplate reader assay; type: cell membranes; details: dose 50.0 µg/ml
[35] = Proteolytic stability in human plasma at 100 uM incubated for 30 mins by Q-TOF LC/MS analysis relative to control; type: ADME, cell-free; details: read-out: Stability
[36] = test system: Escherichia coli; assay: Antibacterial activity against Escherichia coli NDM-1-resistant ATCC BAA-2452 incubated for 24 hrs by microtiter plate method; type: functional
[37] = test system: Staphylococcus aureus; assay: Antibacterial activity against methicillin resistant Staphylococcus aureus ATCC BAA-1556 incubated for 24 hrs by microtiter plate method; type: functional; details: Staphylococcus aureus, ATCC BAA-1556, 24 h, read-out: MIC
[38] = test system: Escherichia coli; assay: Antibacterial activity against Escherichia coli ATCC 25922 after 24 hrs in presence of 150 mM NaCl by microtiter plate method; type: functional
[39] = test system: Klebsiella pneumoniae; assay: Antibacterial activity against Klebsiella pneumoniae ATCC 13883 […] incubated for 24 hrs by microtiter plate method; type: functional

Structure (SMILES) | Activity [1] | MIC [2] [µg/mL] | MIC [3] [µg/mL] | MIC [4] [µg/mL] | MIC [5] [µg/mL] | Activity [6] | MIC [7] [µg/mL] | Activity [8] | MIC [9] [µg/mL] | MIC [10] [µg/mL] | Activity [11] | Activity [12] [%] | Activity [13] | MIC [14] [µg/mL] | MIC [15] [µg/mL] | Activity [16] | Activity [17] | Activity [18] | MIC [19] [µg/mL] | MIC [20] [µg/mL] | other results
N=C(N)NCCC[C@@H]1NC(=O)[C@H](CCCNC(=N)N)NC(=O)[C@H](CCCNC(=N)N)NC(=O)[C@H](Cc2ccc3ccccc3c2)NC(=O)[C@H](Cc2ccc3ccccc3c2)NC(=O)[C@H](Cc2ccc3ccccc3c2)NC(=O)[C@H](CCCNC(=N)N)NC1=O (cyclo(RRRR[2Nal][2Nal][2Nal])) | Tde | 3.1 (≈ 2.55 µM) | 3.1 | 3.1 (≈ 2.55 µM) | > 50 | Active | 25 | Dde | 25 (≈ 20.6 µM) | 6.2 | Tde | 30 | Tde | 25 (≈ 20.6 µM) | 12.5 (≈ 10.3 µM) | Tde | Active | Dde | 3.1 (≈ 2.55 µM) | 25 | MIC [21]: 3.1 µg/mL (≈ 2.55 µM); MIC [22]: 3.1 µg/mL; viability at 24 h, 150 ug/ml [23]: 36%; Activity [24]: Dde; Ratio [25]: 2; MIC [26]: 1.5 µg/mL (≈ 1.23 µM); MIC [27]: 25 µg/mL; Activity [28]: Active; Ratio [29]: 2; viability at 50 µg/mL [30]: 93%; remaining at 24 h, 100 µM [31]: 60%; Activity [32]: Active; MIC [33]: 3.1 µg/mL; Activity [34]: 14%; remaining at 0.5 h, 100 µM [35]: 82%; MIC [36]: 12.5 µg/mL (≈ 10.3 µM); MIC [37]: 3.1 µg/mL (≈ 2.55 µM); MIC [38]: 25 µg/mL; MIC [39]: 50 µg/mL (≈ 41.1 µM)
N=C(N)NCCC[C@@H]1NC(=O)[C@H](CCCNC(=N)N)NC(=O)[C@H](CCCNC(=N)N)NC(=O)[C@H](C(c2ccccc2)c2ccccc2)NC(=O)[C@H](C(c2ccccc2)c2ccccc2)NC(=O)[C@H](C(c2ccccc2)c2ccccc2)NC(=O)[C@H](CCCNC(=N)N)NC1=O (cyclo(RRRR[Dip][Dip][Dip])) | Tde | 3.1 (≈ 2.39 µM) | 3.1 | 3.1 (≈ 2.39 µM) | 50 | Active | 12.5 | Dde | 25 (≈ 19.3 µM) | 6.2 | Tde | 30 | Tde | 25 (≈ 19.3 µM) | 12.5 (≈ 9.66 µM) | Tde | Active | Dde | 6.2 (≈ 4.79 µM) | 12.5 | MIC [21]: 3.1 µg/mL (≈ 2.39 µM); MIC [22]: 3.1 µg/mL; viability at 24 h, 150 ug/ml [23]: 36%; Activity [24]: Dde; Ratio [25]: 2; MIC [26]: 1.5 µg/mL (≈ 1.16 µM); MIC [27]: 12.5 µg/mL; Activity [28]: Active; Ratio [29]: 2; viability at 50 µg/mL [30]: 93%; remaining at 24 h, 100 µM [31]: 65%; Activity [32]: Active; MIC [33]: 3.1 µg/mL; Activity [34]: 18%; remaining at 0.5 h, 100 µM [35]: 86%; MIC [36]: 12.5 µg/mL (≈ 9.66 µM); MIC [37]: 3.1 µg/mL (≈ 2.39 µM); MIC [38]: 12.5 µg/mL; MIC [39]: 50 µg/mL (≈ 38.6 µM)

From ChEMBL document CHEMBL5154681, “Small Amphiphilic Peptides: Activity Against a Broad Range of Drug-Resistant Bacteria and Structural Insight into Membranolytic Properties” (J Med Chem, 2022)
